Source: patent publication EP1285920A1, “C10 Ester sustituted taxanes as antitumor agents” (Florida State University Research Foundation, Inc., priority 2001, dated 2003)
Like-named read-outs stand apart in the source and are kept apart here.

Columns and labels:
A375 melanoma = settings: for Complete Response / Partial Response / Stable Disease / Survivors / Toxic Deaths: number of mice; for Mean Score: tumor scoring system
Experimental: Dosing was initiated on Day 1. […] Taxotere was given i.v. on a qd x 1 schedule at a dose of 70 mg/kg. […] The study was terminated on Day 60. Treatment groups are detailed in Table 9.

[1] = system: NCI-H1299 (H1299) carcinoma; assay: In vivo evaluation against NCI-H1299 human lung carcinoma xenograft (i.v., Example 11)
Experimental: Antitumor compounds were formulated for an i.v. dosing regime prepared in the following vehicle: 10% ethanol, 10% Cremophor and 80% isotonic saline.
Vehicle control animals were dosed twice intravenously with half the total volume being given separated by one hour. The study was terminated on Day 60.
(§1) A complete response is obtained if the tumor is not palpable at the end of the study.
A tumor scoring system was designed to provide a more quantitative ranking of efficacy (therapeutic potential) among the antitumor agents evaluated against the different human solid tumor xenografts. Each mouse in a study was given a score of from 1 to 10 at the end of the study. The scores can be summarized as follows:
The individual score for each mouse was averaged into a mean score for each treatment group. […]
The treatment protocol for the H1299 test was identical to the SK-MES test protocol. […]

DU145 prostate carcinoma = settings: for Stable Disease / Complete Response / Partial Response / Survivors / Toxic Deaths: number of 5 mice
From the text: Dosing was initiated on Day 1. […] Treatment groups are detailed in Table 5.

SKMES lung carcinoma = assay: In vivo evaluation of oral administration against SKMES human lung carcinoma xenograft (Example 21); settings: single oral bolus Day 1
Experimental: Female Nu/Nu mice (6-8 weeks of age; implanted with 1 mm^3 SKMES lung carcinoma fragments in the flank) were sorted into treatment groups of six mice each. […] Treatments were administered as a single oral bolus on Day 1, and the study was terminated on Day 60.
as §1
The total response rate is defined as the percentage of evaluable animals (excluding deaths due to procedure or toxicity) in a group that experience complete or partial responses at the termination of the study.

[2] = system: Panc-1 pancreatic carcinoma; assay: In vivo evaluation against Panc-1 human pancreatic carcinoma (Example 17)
Experimental: The dosing volume was 0.3 ml per 20 g mouse.
Female NCr-nude mice were implanted subcutaneously with 1 mm^3 Panc-1 pancreatic carcinoma fragments in the flank and sorted into treatment groups of six mice each. […] Dosing was initiated on Day 1. The antitumor compounds were given i.v. at an estimated maximum tolerated dose (MTD) appropriate for each agent on a qd x 1 schedule (single administration of compound). […] The vehicle was administered i.v. to control mice in Group 1 on the qd x 1 schedule. The study was terminated on Day 60.
The mean days of survival is the number of days after which a neoplasm reached a size of 1.5 g and the animal was euthanized. A complete response is obtained if the tumor shrinks to a size smaller than its size on Day 1 of the study.

MX-1 carcinoma = system: MX-1 carcinoma
Procedure, shortened: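 Mice dosed with a single i.v. bolus (qd x 1) at each compound's MTD, formulated in 5% ethanol, 5% Cremophor, 90% isotonic saline. Study ended Day 60; complete response = tumor not palpable at study end.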

VM46 colon carcinoma = settings: for Mean Score: tumor scoring system
Experimental: Dosing was initiated on Day 1. […] Taxotere was given i.v. at a dose of 70 mg/kg on a qd x 1 schedule.

HCT116 = assay: In Vitro cytotoxicity measured by the cell colony formation assay; format: cell-based, human; settings: Homo sapiens, HCT-116; read-out: IN VITRO ID 50 HCT116
Procedure, shortened: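 Four hundred cells per dish in McCoy's 5a medium with 10% FBS were allowed to attach for 5 h at 37 °C. They were then exposed to compound for 72 h at 37 °C, added as a 10× stock made fresh in medium. After HBSS rinsing and refeeding, colonies were counted after 7 days.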

[3] = Taxol i.p. qd x 5, 18 mg/kg daily, 6 mice
[4] = i.v. qd x 1 at estimated MTD (Taxol 24 mg/kg, Taxotere 70 mg/kg), 6 mice/group (Taxotere 7)
[5] = i.v. qd x 1 at estimated MTD (Taxol 24 mg/kg, Taxotere 70 mg/kg), 6 mice/group (Taxotere 7), Day 60
[6] = i.v. split dose qd x 1, six mice per group
[7] = i.v. qd x 1 at estimated MTD (Taxol 24 mg/kg split), Day 91
[8] = number of mice, mg/kg: Taxol 40, 0687 228, 0503 73, 6 mice/group, Day 60
[9] = number of mice, i.v. qd x 1, mg/kg: Taxol 36, 0499 77, 0503 72.6, 0670 123.1, 0706 107.6, 0838 72.6, 0854 76.9, 6 mice/group, Day 60
[10] = MX-1, i.v. qd x 1, six mice per group
[11] = number of mice, Taxol 15 mg/kg i.p. qd x 5, 6 mice, Day 64
[12] = number of mice, i.v. qd x 1, mg/kg: Taxol 24, 0499 77, 0503 72.6, 0670 123.1, 0706 107.6, 0838 72.6, 0854 46.6, 0983 67.4, Taxotere 70, 6 mice/group, Day 64

## CC(=O)O[C@H]1C(=O)[C@@]2(C)[C@H]([C@H](OC(=O)c3ccccc3)[C@]3(O)C[C@H](OC(=O)[C@H](O)[C@@H](NC(=O)c4ccccc4)c4ccccc4)C(C)=C1C3(C)C)[C@]1(OC(C)=O)CO[C@@H]1C[C@@H]2O [Taxol, paclitaxel, reference compound]
A375 melanoma; A375, Taxol i.p. 18 mg/kg qd x 5
  toxicity: highly toxic
A375 melanoma; A375, Taxol i.p. 18 mg/kg qd x 5, six animals
  animals died of toxicity: six
A375 melanoma; A375, i.v. qd x 1
  survival extension compared to Group 1 controls: 26%
A375 melanoma; A375, i.v. qd x 1 (Taxol 24 mg/kg split; Taxotere 70 mg/kg), days until tumor 2.0 g, ended Day 60
  MDS: 18.1 days
A375 melanoma; mean days of survival until neoplasm reached 2.0 g, i.v. qd x 1 at estimated MTD (Taxol 24 mg/kg, Taxotere 70 mg/kg), 6 mice/group (Taxotere 7), terminated Day 60
  MDS (n): 18.1 ± 0.6 (4) days
A375 melanoma; [3]
  Complete Response: 0
  Partial Response: 0
  Stable Disease: 0
  Survivors: 0
  Toxic Deaths: 6
  Mean Score: 0 ± 0
A375 melanoma; [4]
  Toxic Deaths: 2
  Mean Score: 0.8 ± 0.3
A375 melanoma; [5]
  Complete Response: 0
  Partial Response: 0
  Stable Disease: 0
  Survivors: 0
[1]; Taxol 36 mg/kg i.v., five animals
  survival extension compared to vehicle-treated animals: 10%
[1]; i.v. MTD in two half doses one hour apart, qd x 1, Taxol 36 mg/kg, 0503 72.1 mg/kg, ended Day 60
  MDS (n): 27.0 ± 4.6 (5) days
[1]; i.v. split dose qd x 1
  Complete Response: 0
  Stable Disease: 0
  antitumor activity: not active
[1]; [6]
  Survivors: 1
  Toxic Deaths: 0
[1]; tumor score 1 to 10 per mouse, group mean
  Mean Score: 2.7 ± 1.3
DU145 prostate carcinoma; DU145, Taxol 24 mg/kg i.v. qd x 1
  increase in survival compared to Group 1 controls: 9%
DU145 prostate carcinoma; DU145, Taxol i.p. 18 mg/kg qd x 5 (Group 3)
  toxicity: highly toxic
DU145 prostate carcinoma; DU145, Taxol i.p. 18 mg/kg qd x 5 (Group 3), five mice
  mice died of drug-related side effects: five
DU145 prostate carcinoma; DU145, i.v. qd x 1 (compounds estimated MTD; Taxol 24 mg/kg split), days until tumor 1.5 g, ended Day 91
  MDS: 37.4 days
DU145 prostate carcinoma; DU145, i.v. qd x 1, five mice per group
  toxic deaths / toxic lethalities: One
DU145 prostate carcinoma; Taxol 18 mg/kg i.p. qd x 5, 5 mice
  Mean Score: 0 ± 0
DU145 prostate carcinoma; i.v. qd x 1 at estimated MTD (Taxol 24 mg/kg split), 5 mice/group, Day 91
  Mean Score: 2 ± 1
DU145 prostate carcinoma; mean days of survival until tumor reached 1.5 g, i.v. qd x 1 at estimated MTD (Taxol 24 mg/kg as two split doses), 5 mice/group, study ended Day 91
  MDS (n): 37.4 ± 8.9 (3) days
DU145 prostate carcinoma; tumor did not reach 1.5 g by end of study, i.v. qd x 1 at estimated MTD (Taxol 24 mg/kg split), Day 91
  Stable Disease: 1
DU145 prostate carcinoma; Taxol 18 mg/kg i.p. qd x 5
  Complete Response: 0
  Partial Response: 0
  Stable Disease: 0
  Survivors: 0
  Toxic Deaths: 5
DU145 prostate carcinoma; i.v. qd x 1 at estimated MTD (Taxol 24 mg/kg as two split doses), Day 91
  Toxic Deaths: 1
DU145 prostate carcinoma; [7]
  Complete Response: 0
  Partial Response: 0
  Survivors: 1
SKMES lung carcinoma; SKMES, 0687 228 mg/kg, 0503 73 mg/kg, Taxol 40 mg/kg
  antitumor activity: no statistically significant response
SKMES lung carcinoma; complete or partial responses among evaluable animals, mg/kg: Taxol 40, 0687 228, 0503 73
  % Total Response: 0%
SKMES lung carcinoma; mean days of survival until neoplasm reached 2.0 g, mg/kg: Taxol 40, 0687 228, 0503 73, 6 mice/group, terminated Day 60
  MDS (n): 13.2 ± 1.4 (6) days
SKMES lung carcinoma; number of mice, mg/kg: Taxol 40, 0687 228, 0503 73, 6 mice/group
  Toxic Deaths: 0
SKMES lung carcinoma; [8]
  Complete Response: 0
  Partial Response: 0
  Stable Disease: 0
  Survivors: 0
[2]; Panc-1 (Example 17), Taxol 36 mg/kg i.v. qd x 1, three mice
  survival extension compared to Group 1 controls: 126%
[2]; Panc-1 (Example 17), i.v. qd x 1, six mice per group
  Toxic Deaths: Three
[2]; number of mice, i.v. qd x 1, mg/kg: Taxol 36, 0499 77, 0503 72.6, 0670 123.1, 0706 107.6, 0838 72.6, 0854 76.9, 6 mice/group
  Toxic Deaths: 3
[2]; [9]
  Complete Response: 0
  Partial Response: 0
  Stable Disease: 0
  Survivors: 0
[2]; tumor scoring system, i.v. qd x 1, mg/kg: Taxol 36, 0499 77, 0503 72.6, 0670 123.1, 0706 107.6, 0838 72.6, 0854 76.9, 6 mice/group
  Mean Score: 1.6 ± 0.7
MX-1 carcinoma; MX-1, Taxol 36 mg/kg i.v. qd x 1, one animal, calculated, tumor 2.0 g
  MDS: 27.8 days
MX-1 carcinoma; MX-1, i.v. qd x 1, Day 60
  antitumor activity / tumor response: moderate anti-tumor activity
MX-1 carcinoma; [10]
  Stable Disease: One
  Toxic Deaths: four
MX-1 carcinoma; i.v. qd x 1 at MTD, 6 mice/group, Day 60, doses as in E17
  Mean Score: 1.2 ± 0.8
MX-1 carcinoma; mouse, in vivo, iv
  tolerability: not well tolerated
MX-1 carcinoma; number of 6 mice, tumor did not reach 2.0 g by end of study, i.v. qd x 1 at MTD, Day 60, doses as in E17
  Stable Disease: 1
MX-1 carcinoma; number of 6 mice, tumor not palpable at end of study, i.v. qd x 1 at MTD, Day 60, doses as in E17
  Complete Response: 0
MX-1 carcinoma; number of 6 mice, tumor smaller than on Day 1, i.v. qd x 1 at MTD, Day 60, doses as in E17
  Partial Response: 0
MX-1 carcinoma; number of 6 mice, i.v. qd x 1 at MTD, Day 60, doses as in E17
  Survivors: 1
MX-1 carcinoma; number of 6 mice, i.v. qd x 1 at MTD, Day 60, mg/kg: Taxol 36 (split dose), 0503 72.6, 0536 49, 0663 159, 0670 123, 0687 159, 0706 108, 0908 159, 0947 76.9, 0951 72.6, 0983 67.4, 0999 49, 1003 49, 1011 108
  Toxic Deaths: 0
VM46 colon carcinoma; VM46, Taxol i.p. 15 mg/kg qd x 5
  toxicity: excessively toxic
VM46 colon carcinoma; VM46, Taxol i.p. 15 mg/kg qd x 5, six treated animals
  mortalities: three
VM46 colon carcinoma; VM46, i.v. qd x 1 (compounds estimated MTD; Taxol 24 mg/kg split), six mice per group, ended Day 64
  partial responses: one
VM46 colon carcinoma; VM46, i.v. qd x 1, six mice per group
  Stable Disease: one
VM46 colon carcinoma; mean days of survival until neoplasm reached 1.5 g, Taxol 15 mg/kg i.p. qd x 5, 6 mice, terminated Day 64
  MDS (n): 36.1 ± 12.2 (2) days
VM46 colon carcinoma; number of mice, Taxol 15 mg/kg i.p. qd x 5, 6 mice
  Toxic Deaths: 3
VM46 colon carcinoma; [11]
  Complete Response: 0
  Partial Response: 1
  Stable Disease: 0
  Survivors: 1
VM46 colon carcinoma; number of mice, i.v. qd x 1, mg/kg: Taxol 24, 0499 77, 0503 72.6, 0670 123.1, 0706 107.6, 0838 72.6, 0854 46.6, 0983 67.4, Taxotere 70, 6 mice/group
  Toxic Deaths: 0
VM46 colon carcinoma; [12]
  Complete Response: 0
  Partial Response: 1
  Stable Disease: 1
  Survivors: 2
VM46 colon carcinoma; Taxol 15 mg/kg i.p. qd x 5, 6 mice
  Mean Score: 1.8 ± 1.3
VM46 colon carcinoma; i.v. qd x 1, mg/kg: Taxol 24, 0499 77, 0503 72.6, 0670 123.1, 0706 107.6, 0838 72.6, 0854 46.6, 0983 67.4, Taxotere 70, 6 mice/group
  Mean Score: 3.8 ± 1.4
HCT116
  IC50: 2.1 nM
